# Assay results published in patent US20090325948A1, “INHIBITORS OF UNDECAPRENYL PYROPHOSPHATE SYNTHASE” (priority 2006, published 2009).
# Target: T1, Streptococcus pneumonia UPPS (Streptococcus pneumoniae serotype 4, UniProt Q97SR4)
# T1 construct: His-tag (N); made in house; this is inferred
# T1 sequence (Q97SR4 1-252): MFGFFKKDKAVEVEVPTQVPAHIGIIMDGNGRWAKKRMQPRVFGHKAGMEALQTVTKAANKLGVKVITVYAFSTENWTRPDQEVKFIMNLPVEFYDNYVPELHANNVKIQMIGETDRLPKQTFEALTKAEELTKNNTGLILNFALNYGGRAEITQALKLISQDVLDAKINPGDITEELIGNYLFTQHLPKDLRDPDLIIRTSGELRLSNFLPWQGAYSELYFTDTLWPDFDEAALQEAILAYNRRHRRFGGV
# Experiment: UPPS binding/inhibition assay (inorganic phosphate quantified with Biomol Green)
# Assay type: biochemical
# Conditions: 20 min preincubation; FPP 3 μM, IPP 16 μM
# Method: The ability of several of the compounds described herein to bind to UPPS was also tested as follows.
# Streptococcus pneumonia UPPS was cloned into pET-15b, expressed and purified as an N-terminal His-tag fusion using affinity chromatography. The working stock of UPPS was prepared by mixing the purified enzyme with liposome made from E. coli total lipids extract (Avanti Polar Lipis, Inc., Alabaster, Ala.). The substrates FPP and IPP and inorganic pyrophosphatase were purchased from Sigma. Biomol Green reagent was from Biomol International (Plymouth Meeting, Pa.). All other chemicals were from Sigma at the highest grade.
# For testing a compound, UPPS was first incubated with the compound at desired concentrations for 20 minutes in the UPPS reaction buffer that contained 100 mM Tris-HCl, pH 7.3, 50 mM KCl, 1 mM MgCl2, 0.01% Triton X-100, and 20 μg/mL BSA. The reaction was then initiated by the addition of a mixture of FPP, IPP, and E. Coli inorganic phosphatase made in the same UPPS reaction buffer. The final concentrations for FPP and IPP were 3 μM and 16 μM, respectively. The inorganic phosphate generated in the reactions was then quantified with Biomol Green reagent, which was then used to determine the rate of the reaction and the inhibitory activity of the compound.
# For example, the results of the binding assay for several compounds are shown the table below: […]
row,SMILES,IC50 [µM]
1,O=C(Nc1ccc(Oc2ccccc2)cc1)c1c(O)c2cscc2[nH]c1=O [compound 2],0.01 to 10
2,COc1ccc(-c2nc(NC(=O)c3c(O)c4cscc4[nH]c3=O)nn2-c2ccc(OC)cc2)cc1 [compound 10],0.01 to 10
3,CC(C)(C)C1CCC(NC(=O)c2c(O)c3cscc3[nH]c2=O)CC1 (stereo not shown) [compound 11],0.01 to 10
4,O=C(Nc1ccc(-c2ccccc2)cc1)C1=C(O)[C@H]2CNC[C@@H]2NC1=O [compound 17],0.01 to 10
5,CCN1C[C@@H]2NC(=O)C(C(=O)Nc3ccc(C4CCCCC4)cc3)=C(O)[C@H]2C1 [compound 20],0.01 to 10
6,O=C(Nc1ccc(-c2ccccc2)cc1)C1=C(O)C2CNCCC2NC1=O (stereo not shown) [compound 26],0.01 to 10
7,O=C(Nc1ccc(N2CCCCC2)cc1)C1=C(O)C2CCNCC2NC1=O (stereo not shown) [compound 32],0.01 to 10
8,CC(C)(C)OC(=O)N1CCC2NC(=O)C(C(=O)Nc3ccc(Oc4ccccc4)cc3)=C(O)C2C1 (stereo not shown) [compound 34],0.01 to 10
9,O=C(Nc1ccc(N2CCCCC2)cc1)C1=C(O)C2CNCCC2NC1=O (stereo not shown) [compound 37],0.01 to 10
10,O=C(Nc1ccc(C2CCCCC2)cc1)C1=C(O)[C@H]2CCC[C@H]2NC1=O [compound 45],0.01 to 10
11,O=C(Nc1ccc(N2CCCCC2)cc1)C1=C(O)[C@H]2CNCC[C@@H]2NC1=O [compound 46],0.01 to 10
12,O=C(Nc1ccc(N2CCCCC2)cc1)C1=C(O)[C@H]2CNCC[C@H]2NC1=O [compound 47],0.01 to 10
13,O=C(Nc1ccc(N2CCCCC2)cc1)C1=C(O)C2CCNCC2NC1=O (stereo not shown) [compound 49],0.01 to 10
14,O=C(Nc1ccc(C2CCCCC2)cc1)C1=C(O)[C@H]2CNCC[C@@H]2NC1=O [compound 51],0.01 to 10
15,CC(C)(C)OC(=O)N1CCC2C(O)=C(C(=O)Nc3ccc(N4CCCC4)cc3)C(=O)NC2C1 (stereo not shown) [compound 54],0.01 to 10
16,CC(C)(C)OC(=O)N1CCC2NC(=O)C(C(=O)Nc3ccc(N4CCN(CCO)CC4)cc3)=C(O)C2C1 (stereo not shown) [compound 59],0.01 to 10
17,O=C(Nc1ccc(N2CCCC2)cc1)C1=C(O)C2CCNCC2NC1=O (stereo not shown) [compound 61],0.01 to 10
18,O=C(Nc1ccc(N2CCN(CCO)CC2)cc1)C1=C(O)C2CNCCC2NC1=O (stereo not shown) [compound 64],> 50

row,SMILES,IC50 [µM]
1,C#CCOC(=O)N1CC[C@@H]2NC(=O)C(C(=O)Nc3ccc(N4CCCCC4)cc3)=C(O)[C@H]2C1 [compound 73],> 50
2,O=C(NCc1ccccc1)c1c(O)c2c([nH]c1=O)CCCC2 [compound 84],0.01 to 10
3,CC(C)CCNC(=O)c1c(O)c2c([nH]c1=O)CCCC2 [compound 87],0.01 to 10
4,O=C(Nc1cccc(Br)c1)c1c(O)c2c([nH]c1=O)CCCC2 [compound 93],> 50
5,O=C(Nc1cccc(Cl)c1Cl)c1c(O)c2c([nH]c1=O)CCCC2 [compound 100],> 50
6,O=C(Nc1ccc(C2CCCCC2)cc1)c1c(O)c2cc(-c3ccccc3)sc2[nH]c1=O [compound 107],0.01 to 10
7,CCCCCCOc1ccc(NC(=O)c2c(O)c3cc(-c4ccccc4)sc3[nH]c2=O)cc1 [compound 110],0.01 to 10
8,O=C(Nc1ccc(C(F)(F)F)cc1)c1c(O)c2cc(-c3ccccc3)sc2[nH]c1=O [compound 111],10 to 50
9,O=C(Nc1ccc(N2CCCCC2)cc1)c1c(O)c2c([nH]c1=O)CNCC2 [compound 120],0.01 to 10
10,CCCOC(=O)c1ccc(NC(=O)c2c(O)c3c([nH]c2=O)CCCC3)cc1 [compound 124],0.01 to 10
11,CC(=O)N1CCc2[nH]c(=O)c(C(=O)Nc3ccc(N4CCCCC4)cc3)c(O)c2C1 [compound 126],0.01 to 10
12,COC(=O)N1CCc2[nH]c(=O)c(C(=O)Nc3ccc(N4CCCCC4)cc3)c(O)c2C1 [compound 129],0.01 to 10
13,O=C(NCCN1CCOCC1)c1c(O)c2ccccc2[nH]c1=O [compound 154],0.01 to 10
14,O=C(Nc1ccc(-c2ccccc2)cc1)c1c(O)c2cc(Br)ccc2[nH]c1=O [compound 159],0.01 to 10
15,Cn1c(=O)c(C(=O)Nc2ccc(Oc3ccccc3)cc2)c(O)c2ccccc21 [compound 168],0.01 to 10
16,COc1ccc(-c2nc(NC(=O)c3c(O)c4ccccc4n(C)c3=O)nn2-c2ccc(OC)cc2)cc1 [compound 173],0.01 to 10
17,Cn1c(=O)c(C(=O)Nc2ccc(OC(F)(F)F)cc2)c(O)c2ccccc21 [compound 175],0.01 to 10
18,CCCN(CC)c1ccc(NC(=O)c2c(O)c3ccc(N4CCN(C)CC4)cc3[nH]c2=O)cc1 [compound 180],0.01 to 10

# Results, then the molecule that gave them:
row,IC50 [µM],SMILES
1,0.01 to 10,O=C(Nc1ccc(C2CCCCC2)cc1)c1c(O)c2cscc2[nH]c1=O [compound 4]
2,0.01 to 10,O=C(Nc1ccc(Oc2ccccc2)cc1)C1=C(O)C2CNCCC2NC1=O (stereo not shown) [compound 28]
3,0.01 to 10,CC(C)(C)OC(=O)N1CCC2NC(=O)C(C(=O)Nc3ccc(C4CCCCC4)cc3)=C(O)C2C1 (stereo not shown) [compound 29]
4,0.01 to 10,O=C(Nc1ccc(C(F)(F)F)cc1)C1=C(O)[C@H]2CCC[C@H]2NC1=O [compound 40]
5,0.01 to 10,CCN1CC[C@@H]2NC(=O)C(C(=O)Nc3ccc(N4CCCCC4)cc3)=C(O)[C@H]2C1 [compound 69]
6,0.01 to 10,COCCOC(=O)N1CC[C@@H]2NC(=O)C(C(=O)Nc3ccc(N4CCCCC4)cc3)=C(O)[C@H]2C1 [compound 72]
7,0.01 to 10,O=C(NC1CCCCCC1)c1c(O)c2c([nH]c1=O)CCCC2 [compound 92]
8,0.01 to 10,CNC(=O)c1ccccc1NC(=O)c1c(O)c2c([nH]c1=O)CCCC2 [compound 98]
9,0.01 to 10,O=C(Nc1nc2ccc(Br)cc2s1)c1c(O)c2c([nH]c1=O)CCCC2 [compound 104]
10,0.01 to 10,O=C(Nc1ccc(N2CCCCC2)cc1)c1c(O)c2c([nH]c1=O)CCNC2 [compound 121]
11,0.01 to 10,CC(C)(C)C(=O)N1CCc2[nH]c(=O)c(C(=O)Nc3ccc(N4CCCCC4)cc3)c(O)c2C1 [compound 128]
12,0.01 to 10,O=C(NNC(=O)c1c(O)c2ccccc2[nH]c1=O)c1ccccc1Cl [compound 131]
13,0.01 to 10,O=C(NC1CCCCC1)c1c(O)c2ccccc2[nH]c1=O [compound 137]
14,0.01 to 10,O=C(Nc1ccc(Oc2ccccc2)cc1)c1c(O)c2ccccc2[nH]c1=O [compound 142]
15,> 50,COc1cccc2[nH]c(=O)c(C(=O)Nc3ccc(Oc4ccccc4)cc3)c(O)c12 [compound 144]
16,0.01 to 10,O=C(Nc1ccc(C(F)(F)F)nc1)c1c(O)c2ccccc2[nH]c1=O [compound 157]
17,0.01 to 10,O=C(Nc1ccccc1Oc1ccccc1)c1c(O)c2ccccc2[nH]c1=O [compound 162]
18,0.01 to 10,CCCN(CC)c1ccc(NC(=O)c2c(O)c3ccc(N4CCNCC4)cc3[nH]c2=O)cc1 [compound 178]
19,0.01 to 10,O=C(Nc1ccc(N2CCCCC2)cc1)c1c(O)c2cc(N3CCNCC3)ccc2[nH]c1=O [compound 179]
